{"source": "paper PMC2812660", "about": "(Biochemical and biophysical research communications, 2009)", "target": "20S proteasome (Oryctolagus cuniculus, UniProt G1T4Q9)", "test": "fluorogenic chymotrypsin-like activity assay", "type": "biochemical", "conditions": "chymotrypsin-like site; control incubation without added SAM/SAH", "note": "*1 amine or outer side, *2 acyl side, *3 side chain or, on linkers, in order; H or OH if unused. Where a SMILES comes first, the peptide text is derived from it. The star is where a group is joined. AMC = Cc1cc(=O)oc2cc(N*)ccc12; Suc = O=C(CCC(=O)[*:2])[*:1]"}
{"smiles": "Cc1cc(=O)oc2cc(NC(=O)[C@H](Cc3ccc(O)cc3)NC(=O)[C@@H](NC(=O)[C@H](CC(C)C)NC(=O)[C@H](CC(C)C)NC(=O)CCC(=O)O)C(C)C)ccc12", "note": "[Suc-LLVY-AMC] (Suc-LLVY-{AMC})", "values": [{"measurement": "fluorogenic chymotrypsin-like activity assay", "value": "activity was detected in vitro using the fluorogenic substrate Suc-LLVY-AMC"}]}
